Where “and” joins values, the source holds several entries; their conditions need not be identical. Identical values can stand only once.
Experiments:
[1] = system: micronucleated cells in blood; settings: literature statement; cited from earlier work
[2] = system: micronucleated cells in blood; assay: Single parameter flow cytometric micronucleus analysis, cyclophosphamide, effect of analysis window size; format: in vivo, mouse
Protocol: In order to show this single parameter embodiment of this invention, the instrument was aligned with the malaria parasite, P. berghei, data was acquired, and analysis windows were defined relative to the malaria peak. […] A prominent peak, characteristic of cells single parasites, is evident. The primary analysis window was used to bracket the main peak and extends to the third log has mark. […] Blood samples (t=0 and t=96 hr) from a mouse that was dosed with cyclophosphamide (at t=0 and t=48 hrs) were stained with […] and the events were also acquired in the single parameter mode. FIGS. 9A and 9B show the blue fluorescence histograms that were obtained for the t=0 and the t=96 hr samples, respectively. The analysis windows shown in FIG. 9 are those that were initially set up with the malaria infected blood sample shown in FIG. 8. The number of events present in the primary analysis windows are shown. […]
Practioners in the art are presently unaware of the need for internal quality control on the flow cytometer signals during the analysis of each sample. […] As indicated earlier, neither RBC, PCEs, MN-cells nor the nucleated cell populations provide proper signals for evaluating instrument alignment since they are either nor present in sufficient quantities, the populations are too dispersed, or cell staining variations would be introduced. […]

[3] = system: micronucleated cells in blood; assay: Flow cytometric micronucleus assay, dual parameter data, MMS, Hoechst 33258 & propidium iodide, per 500,000 cells; format: in vivo, mouse; settings: MMS 100 μg/g body weight IP at 0 and 48 hours
Source text: The fixation procedure can affect the permeability of a cell, cell morphology and the amount of undesirable autofluorescence that is associated with a cell preparation. Fixing procedures can cause changes in cell structure (that are reflected in the light scatter patterns) as well as changes in the distribution of the dye molecules within the cells (resulting in altered fluorescence emission patterns). Practioners of the art are unaware that fixing the cells at ultralow temperatures circumvents these fixation problems and provides cells that are suitable for subsequent staining and FCM analysis. […] Cells fixed in this way can be stored at 0° C. for weeks with no significant deterioration and are ready for staining and MN analysis.
When two dyes are used for simultaneous micronucleus and PCE discrimination, the cell suspension is prepared as follows: The Hoechst 33258 working solution described above is prepared and is filtered through an 0.2 micron Acro-disk (Gilman Sciences). […] When blood from a malaria (P. berghei) infected mouse was fixed and stained by this procedure, the bivariate pattern shown in FIG. 1B resulted, in which a stronger red fluorescence signal was obtained. […] The pH of the stained solution is important for good fluorescence emission profiles and resolution of the different cell populations. […]

Compound | clastogenic activity (documented) [1] | clastogen stimulated increase in MNs ([2]; cyclophosphamide at t=0 and t=48 hrs, primary or expanded window) | Sum96 (t = 96 hr) ([2]; cyclophosphamide, primary window plus sequentially added secondary windows 2-8) | Mns (96 hr) [3] | ΔMns (T96 - T0) [3]
O=P1(N(CCCl)CCCl)NCCCO1 (centres unmarked) [cyclophosphamide] | clastogenic activity of cyclophosphamide has been documented | clastogen stimulated increase in MNs is clearly evident | 1480 MN events and 1563 MN events and 1644 MN events and 1713 MN events and 1778 MN events and 1839 MN events and 1915 MN events |  | 
COS(C)(=O)=O [MMS, methyl methanesulfonate] |  |  |  | 1416 MNs per 500,000 cells and 1394 MNs per 500,000 cells and 1282 MNs per 500,000 cells and 1535 MNs per 500,000 cells | 535 MNs per 500,000 cells and 563 MNs per 500,000 cells and 657 MNs per 500,000 cells and 399 MNs per 500,000 cells and 520 MNs per 500,000 cells and 535 ± 107 MNs per 500,000 cells

— patent US5229265A, “Process for analyzing clastogenic agents” (Litron Laboratories, priority 1990, dated 1993)
